Type in all cases: in vivo
The subject of data set [1] is wheat. Put plainly: Test Example 5: effect on crop by foliage application, plastic box (symbol e). The conditions noted are these: 320 g/ha, 3 weeks after application. The method, boiled down:
(§1)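 Box culture: sterile diluvial soil, seeds spot-sown, ~1.5 cm cover, raised under glass at 25–30° C.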

A further data set deals with Leptochloa chinensis. The experiment in a line: Test Example 3: herbicidal effect by foliage application, Wagner pot (symbol D). As to conditions: application herbicide amount 320 g/ha. Put shortly: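 Post-emergence, paddy-type test: seedlings 14 d old in shallow-flooded (0.1–0.5 cm) alluvial soil, 25–30 °C greenhouse. Emulsion diluted to target rate, sprayed on leaves. Read-out: visual effect on each species at 3 weeks, per set criteria.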

Data set [2] deals with Setaria viridis. The experiment in a line: Test Example 5: herbicidal effect by foliage application, plastic box (symbol G). As to conditions: 320 g/ha, 3 weeks after application. Put shortly: (§2)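 After sowing into sterilized diluvial soil and growing two weeks under glass at 25° C. to 30° C., seedlings receive a uniform foliar spray of diluted emulsion. Damage is judged visually three weeks on.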

Data set [3] relates to wheat. Put plainly: Test Example 4: effect on crop by soil treatment (symbol e). As to conditions: application herbicide amount 320 g/ha. The method, boiled down:
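Greenhouse culture at 25° C. to 30° C. followed sowing of seed in spots on sterilized diluvial soil with a soil cover close to 1.5 cm thick.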

The test system of data set [4] is Setaria viridis. Put plainly: Test Example 4: herbicidal effect by soil treatment (symbol G). As to conditions: application herbicide amount 320 g/ha. Put shortly: (§3)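 Seeds were sown in sterilized diluvial soil, covered with about 1.5 cm of soil, and the soil surface was sprayed with a water-diluted emulsion of the compound at a predetermined rate. Plants grew in a greenhouse at 25° C. to 30° C.; effects were scored visually 3 weeks after application.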

The subject of another data set is Amaranthus retroflexus. Put plainly: Test Example 4: herbicidal effect by soil treatment (symbol N). As to conditions: application herbicide amount 320 g/ha. Put shortly: as §3
Data set [5] relates to Echinochloa oryzacola Vasing. Put plainly: Test Example 2: herbicidal activity, application during weed generation in submerged conditions (symbol A). As to conditions: Table 23; application herbicide amount 320 g/ha; grade 0-5 by criteria of Test Example 1. Put shortly: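 Steps: fill pots with alluvial soil; add water to 4 cm depth; co-sow the three weeds; grow at 25° C. to 30° C. under glass; at 1–2 leaves, dose the floodwater with diluted emulsion; rate damage visually after 3 weeks.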

The next data set relates to Chenopodium album. The experiment in a line: Test Example 5: herbicidal effect by foliage application, plastic box (symbol O). As to conditions: 320 g/ha, 3 weeks after application. Put shortly: as §2
Another data set relates to rice plant. Put plainly: Test Example 5: effect on crop by foliage application, plastic box (symbol b). The conditions noted are these: 320 g/ha, 3 weeks after application. Put shortly: as §1
The subject of another data set is Alopecurus myosuroides. Put plainly: Test Example 5: herbicidal effect by foliage application, plastic box (symbol J). The conditions noted are these: 320 g/ha, 3 weeks after application. The method, boiled down:
as §2

A further data set relates to beet. The experiment in a line: Test Example 5: effect on crop by foliage application, plastic box (symbol f). The conditions noted are these: 320 g/ha, 3 weeks after application. The method, boiled down: as §1
For a further data set, the system named is corn. Put plainly: Test Example 5: effect on crop by foliage application, plastic box (symbol c). As to conditions: 320 g/ha, 3 weeks after application. The method, boiled down: as §1

For `CCOC(=O)C(C(=O)Cc1ccccc1)C1CC(O)=C(c2c(C)cc(C)cc2C)C1=O` (stereo not drawn) [2-011], the “e: wheat, effect on crop grade” value in the data set on wheat [1] and with wheat [3] was 0 (Herbicidal ratio of 5% or lower (almost no effect)) each time. In the data set with Leptochloa chinensis, the “herbicidal effect on D (Leptochloa chinensis), grade 0-5” value (“herbicidal effect on D” for short) was 0 (Herbicidal ratio of 5% or lower (almost no effect)). For the same compound, the “G: Setaria viridis, herbicidal effect grade” value (“G: Setaria viridis” for short) in the data set with Setaria viridis [2] and in the data set with Setaria viridis [4] was 0 (Herbicidal ratio of 5% or lower (almost no effect)) throughout. Moreover, the “N: Amaranthus retroflexus, herbicidal effect grade” value (shortened to “N: Amaranthus retroflexus”) in the data set with Amaranthus retroflexus is 0 (Herbicidal ratio of 5% or lower (almost no effect)). Moreover, the “Herbicidal effect grade, A: Echinochloa oryzacola Vasing.” value in data set [5] is reported as 0 (Herbicidal ratio of 5% or lower (almost no effect)). Besides, in the data set with Chenopodium album, the “O: Chenopodium album, herbicidal effect grade” value (shortened to “O: Chenopodium album”) was 0 (Herbicidal ratio of 5% or lower (almost no effect)). Besides, the “b: directly sowed rice plant, effect on crop grade” value (from here on “b: directly sowed rice plant”) in the data set with rice plant is 3 (Herbicidal ratio of 40% or higher and lower than 70%). Further, the “J: Alopecurus myosuroides, herbicidal effect grade” value (“J: Alopecurus myosuroides” below) in the data set on Alopecurus myosuroides was 1 (Herbicidal ratio of 5% or higher and lower than 20%). Also, the “f: beet, effect on crop grade” value with beet is 0 (Herbicidal ratio of 5% or lower (almost no effect)). Besides, the “c: corn, effect on crop grade” value with corn was 0 (Herbicidal ratio of 5% or lower (almost no effect)).

For the compound `Cc1cc(C)c(C2=C(O)CC(CC(=O)c3ccc(F)cc3)C2=O)c(C)c1` (stereo not drawn) [2-032], the “e: wheat, effect on crop grade” value is 1 (Herbicidal ratio of 5% or higher and lower than 20%) in the data set with wheat [1]; 0 (Herbicidal ratio of 5% or lower (almost no effect)) in the data set with wheat [3]. For the same compound, the “herbicidal effect on D” value with Leptochloa chinensis is 3 (Herbicidal ratio of 40% or higher and lower than 70%). The “G: Setaria viridis” value with Setaria viridis [2] and in the data set on Setaria viridis [4] was 5 (Herbicidal ratio of 90% or more (almost completely withered)) throughout. Moreover, the “N: Amaranthus retroflexus” value in the data set with Amaranthus retroflexus is listed as 0 (Herbicidal ratio of 5% or lower (almost no effect)). For the same compound, in [5], the “Herbicidal effect grade, A: Echinochloa oryzacola Vasing.” value is 4 (Herbicidal ratio of 70% or higher and lower than 90%). The “O: Chenopodium album” value in the data set with Chenopodium album is on record as 0 (Herbicidal ratio of 5% or lower (almost no effect)). For the same compound, in the data set with rice plant, the “b: directly sowed rice plant” value is listed as 5 (Herbicidal ratio of 90% or more (almost completely withered)). Besides, the “J: Alopecurus myosuroides” value in the data set with Alopecurus myosuroides was 4 (Herbicidal ratio of 70% or higher and lower than 90%). The “f: beet, effect on crop grade” value with beet is 0 (Herbicidal ratio of 5% or lower (almost no effect)). Moreover, the “c: corn, effect on crop grade” value in the data set with corn was 1 (Herbicidal ratio of 5% or higher and lower than 20%).

As for `CCOC(=O)C(C(=O)c1ccccn1)C1CC(O)=C(c2c(C)cc(C)cc2C)C1=O` (stereo not drawn) [2-013], the “e: wheat, effect on crop grade” value in the data set on wheat [1] and in the data set with wheat [3] was 0 (Herbicidal ratio of 5% or lower (almost no effect)) each time. Moreover, the “herbicidal effect on D” value in the data set with Leptochloa chinensis is on record as 0 (Herbicidal ratio of 5% or lower (almost no effect)). Moreover, the “G: Setaria viridis” value with Setaria viridis [2] is 5 (Herbicidal ratio of 90% or more (almost completely withered)); in the data set on Setaria viridis [4], 1 (Herbicidal ratio of 5% or higher and lower than 20%). In addition, the “N: Amaranthus retroflexus” value in the data set with Amaranthus retroflexus was 0 (Herbicidal ratio of 5% or lower (almost no effect)). Also, the “Herbicidal effect grade, A: Echinochloa oryzacola Vasing.” value in data set [5] is on record as 0 (Herbicidal ratio of 5% or lower (almost no effect)). Further, the “O: Chenopodium album” value with Chenopodium album is 1 (Herbicidal ratio of 5% or higher and lower than 20%). The “b: directly sowed rice plant” value in the data set with rice plant is reported as 5 (Herbicidal ratio of 90% or more (almost completely withered)). In the data set with Alopecurus myosuroides, the “J: Alopecurus myosuroides” value is given as 5 (Herbicidal ratio of 90% or more (almost completely withered)). Besides, in the data set on beet, the “f: beet, effect on crop grade” value is 0 (Herbicidal ratio of 5% or lower (almost no effect)). The “c: corn, effect on crop grade” value in the data set on corn was 4 (Herbicidal ratio of 70% or higher and lower than 90%).

In the case of `CCC(=O)CC1CC(O)=C(c2c(C)cc(C)cc2C)C1=O` (stereo not drawn) [2-006], the “e: wheat, effect on crop grade” value in the data set with wheat [1] and with wheat [3] was 0 (Herbicidal ratio of 5% or lower (almost no effect)) throughout. Also, the “G: Setaria viridis” value in the data set with Setaria viridis [2] is 3 (Herbicidal ratio of 40% or higher and lower than 70%); with Setaria viridis [4], 5 (Herbicidal ratio of 90% or more (almost completely withered)). For the same compound, the “N: Amaranthus retroflexus” value in the data set with Amaranthus retroflexus is given as 0 (Herbicidal ratio of 5% or lower (almost no effect)). The “Herbicidal effect grade, A: Echinochloa oryzacola Vasing.” value in data set [5] is reported as 5 (Herbicidal ratio of 90% or more (almost completely withered)). For the same compound, the “O: Chenopodium album” value in the data set with Chenopodium album is on record as 0 (Herbicidal ratio of 5% or lower (almost no effect)). Moreover, in the data set on rice plant, the “b: directly sowed rice plant” value was 4 (Herbicidal ratio of 70% or higher and lower than 90%). For the same compound, the “J: Alopecurus myosuroides” value in the data set with Alopecurus myosuroides is 4 (Herbicidal ratio of 70% or higher and lower than 90%). For the same compound, the “f: beet, effect on crop grade” value in the data set with beet is reported as 0 (Herbicidal ratio of 5% or lower (almost no effect)). The “c: corn, effect on crop grade” value with corn is recorded as 0 (Herbicidal ratio of 5% or lower (almost no effect)).

As to `CON=C(C)CC1CC(O)=C(c2c(C)cc(-n3cc(Cl)cn3)cc2C)C1=O` (mixture of isomers) [6-004], the “e: wheat, effect on crop grade” value in the data set with wheat [1] and with wheat [3] was 0 (Herbicidal ratio of 5% or lower (almost no effect)) each time. The “herbicidal effect on D” value in the data set with Leptochloa chinensis is 5 (Herbicidal ratio of 90% or more (almost completely withered)). In addition, the “G: Setaria viridis” value in the data set with Setaria viridis [2] and in the data set on Setaria viridis [4] was 5 (Herbicidal ratio of 90% or more (almost completely withered)) throughout. Further, in the data set on Amaranthus retroflexus, the “N: Amaranthus retroflexus” value was 4 (Herbicidal ratio of 70% or higher and lower than 90%). In addition, the “Herbicidal effect grade, A: Echinochloa oryzacola Vasing.” value in data set [5] is given as 5 (Herbicidal ratio of 90% or more (almost completely withered)). Also, the “O: Chenopodium album” value with Chenopodium album was 3 (Herbicidal ratio of 40% or higher and lower than 70%). Besides, in the data set on rice plant, the “b: directly sowed rice plant” value is given as 5 (Herbicidal ratio of 90% or more (almost completely withered)). The “J: Alopecurus myosuroides” value with Alopecurus myosuroides is listed as 5 (Herbicidal ratio of 90% or more (almost completely withered)). Also, the “c: corn, effect on crop grade” value in the data set on corn was 4 (Herbicidal ratio of 70% or higher and lower than 90%).

Turning to `CC#Cc1cc(C)c(C2=C(O)CC(CC(C)=NOC)C2=O)c(CC)c1` (mixture of isomers) [6-006], the “e: wheat, effect on crop grade” value in the data set on wheat [1] and in the data set with wheat [3] was 5 (Herbicidal ratio of 90% or more (almost completely withered)) throughout. For the same compound, the “herbicidal effect on D” value with Leptochloa chinensis is recorded as 5 (Herbicidal ratio of 90% or more (almost completely withered)). In addition, the “G: Setaria viridis” value is 3 (Herbicidal ratio of 40% or higher and lower than 70%) in the data set on Setaria viridis [2]; 5 (Herbicidal ratio of 90% or more (almost completely withered)) in the data set on Setaria viridis [4]. Besides, the “N: Amaranthus retroflexus” value with Amaranthus retroflexus is 3 (Herbicidal ratio of 40% or higher and lower than 70%). In addition, in [5], the “Herbicidal effect grade, A: Echinochloa oryzacola Vasing.” value is given as 5 (Herbicidal ratio of 90% or more (almost completely withered)). Further, in the data set with Chenopodium album, the “O: Chenopodium album” value was 0 (Herbicidal ratio of 5% or lower (almost no effect)). Also, the “b: directly sowed rice plant” value in the data set with rice plant was 4 (Herbicidal ratio of 70% or higher and lower than 90%). In the data set on Alopecurus myosuroides, the “J: Alopecurus myosuroides” value is reported as 5 (Herbicidal ratio of 90% or more (almost completely withered)). Further, the “c: corn, effect on crop grade” value in the data set on corn was 1 (Herbicidal ratio of 5% or higher and lower than 20%).

Source of the values: US11000033B2, “Ketone or oxime compound, and herbicide” (NISSAN CHEMICAL CORPORATION, priority 2014, dated 2021).
